Measurements reported in patent US11446233B2, “Serums for reducing lipid peroxidation” (L'OREAL, priority 2020, dated 2022).

Experiment: Ingredient metering: LC-UV concentration of active ingredients on storage
Format: physicochemical
Settings: for Concentration of ingredient in inventive formula, T1M 45° C / Concentration of ingredient in inventive formula, T1M TA: in Inventive Ex. 1, 1 month; for Concentration of ingredient in inventive formula, T1M TA / Concentration of ingredient in inventive formula, T2M TA: temperature ambient; for Concentration of ingredient in inventive formula, T2M 45° C / Concentration of ingredient in inventive formula, T2M TA: in Inventive Ex. 1, 2 months; for Concentration of ingredient in inventive formula, T0 M: in Inventive Ex. 1, month 0
Description: The levels of Ascorbic Acid, Ferulic Acid, Salicylic Acid, and Silybum marianum Extract (Active Silybin) were metered.

Row | Concentration of ingredient in inventive formula, T1M 45° C | Concentration of ingredient in inventive formula, T1M TA | Concentration of ingredient in inventive formula, T2M 45° C | Concentration of ingredient in inventive formula, T2M TA | Concentration of ingredient in inventive formula, T0 M | SMILES
1 | 0.49% | 0.50% | 0.47% | 0.49% |  | O=C(O)c1ccccc1O [Salicylic Acid]
2 | 0.43% | 0.48% | 0.39% | 0.50% | 0.46% | COc1cc(/C=C/C(=O)O)ccc1O [Ferulic Acid]
3 | 14.72% | 15.04% | 14.00% | 15.60% | 15.2% | O=C1O[C@H]([C@@H](O)CO)C(O)=C1O [Ascorbic Acid]
